How the values were obtained:
Arabidopsis [1] = experiment: Arabidopsis pot experiment (rosette size, soil phosphate, anthocyanin); type: in vivo, Arabidopsis thaliana
Method: Regular Arabidopsis, soybean and maize pot experiments used an unfertilized potting soil, which was supplemented at the start of the experiment with 50 ml H2O containing 0.25 g/l NH4NO3 and 0.44 g/l (high phosphate) or no (maize and soybean) or 0.11 g/l KH2PO (Arabidopsis) for low phosphate conditions. For the sand-based maize pot experiment, sand was supplemented with 50 ml H2O containing 0.25 g/l NH4NO3 and 0.38 g/l (high phosphate) or 0.02 g/l (low phosphate) KH2PO4. Potassium was balanced via addition of KCl. Compound concentration was 10 μM, calculated based on the total water content after watering, and was added at the start of the experiment (Arabidopsis) or once a week (maize). Indexed chlorophyll contents were received via a SPAD 502 Plus Chlorophyll Meter. All parameters in the sand experiment, except the rate of leaf 4 (measured the first 4 days after emergence), were measured 19 days after sowing. Measurements in the pot experiments with potting soil were done after 4 weeks of growth, except for leaf 5, which was measured at 26 days. One long-term maize pot experiment was conducted with the DKC 2931 (2.5 months) and B104 (3 months) cultivars on the PHENOVISION phenotyping platform as described in Frontiers in Plant Science 2021, 12: 640914, except that an unfertilized potting soil was used and that plants were fertilized with a low-phosphate Hoagland solution. The 2.5× overconcentrated low-phosphate Hoagland solution contained 0.034 g/l KH2PO and 200 mL of this solution was applied twice a week. 1.4 mL of a 10 mM compound solution was added each two weeks to each pot, corresponding to 9.6 mg/g nutrients. 13 plants per condition were used. During the experiment, pictures were taken twice a week for each plants from 6 different angles and the top. […] Extraction and quantification of anthocyanin levels was carried out according to The Plant cell 2013, 25:1641-1656. Anthocyanin levels were quantified by measuring absorption at 530 and 657 nm using a spectrophotometer and normalized to fresh weight input, and expressed relative to the low phosphate control. […]

Arabidopsis [2] = experiment: Arabidopsis vertical plate growth assay (primary root length, shoot biomass); type: in vivo, Arabidopsis thaliana; settings: 10 μM, low phosphate
Method: All Arabidopsis plant experiments were performed using the Arabidopsis thaliana Columbia-0 background. The Arabidopsis pSPX1::GUS line is described in the Plant Journal 2008, 54: 965-975. For rice, the cultivar Nipponbare was used. For maize, the cultivars DKC 2931 and B104 were used for regular pot experiments and sand-based pot experiments, respectively. For soybean, the cultivar Primus was used. […] The medium was solidified due to the addition of 0.6% Gelrite, unless stated otherwise. In case of vertical plates (root length and root hair measurements), the medium was supplied with 0.5% of sucrose and 1 μM (low phosphate, 1 μM KH2PO4, 9.9 mM KCl), 10 μM (low phosphate 10 μM KH2PO4, 9.9 mM KCl) or 1.25 mM KH2PO4 (high phosphate). Arabidopsis seeds were stratified for 2 days at 4° C. before germination. Seedlings were germinated in climate-controlled growth chambers at 22° C. under continuous light (100 μmol m^−2 s^−1). Husked rice seeds were germinated on wetted Whatman paper for 2 days at 37° C. and then transferred to Sterivent boxes or square Petri dishes with solid medium. Maize and soybean seeds were wetted 24 hours at room temperature prior to sowing in pots.
Arabidopsis primary root growth experiments were done on MS1/2 on vertical standing plates and roots were measured 11 days after germination. Roots were imaged using a flatbed scanner (EPSON Expression 11000XL) and root length was measured using ImageJ software. Arabidopsis shoot biomass was determined in 11 days after germination and growth on vertical standing plates with modMS. Arabidopsis leaf area was measured 21 days after germination on horizontal plates with modMS medium. Plates were scanned from the top using a flatbed scanner (EPSON Expression 11000XL) and the visible leaf area was measured using ImageJ software. Rice plate experiments used vertically standing Petri dishes containing MS1/2 medium (low phosphate—0.001 mM) solidified with 0.8% washed agar. Plant height was measured 11 days after germination. […] Plant height was measured 13 days after germination. […]

What does the source list for `CC1CN(CC(=O)c2c(N)n(C)c(=O)n(C)c2=O)c2ccccc2O1` (stereo not drawn) [Compound 8, 6-amino-1,3-dimethyl-5-[2-(2-methyl-2,3-dihydro-1,4-benzoxazin-4-yl)acetyl]pyrimidine-2,4-dione]?
Relative anthocyanin level (Arabidopsis [1]; 4-week old plant, relative to low phosphate control = 1): 0.6; Phosphate level in soil (relative value) (Arabidopsis [1]; after 4 weeks of growth, relative to low phosphate control = 1): 0.8; Rosette size (Arabidopsis [1]; low phosphate, 10 μM, 4 weeks, control 17): 25 cm^2; Primary root length versus control without compound (Arabidopsis [2]; 11-day-old Arabidopsis): almost double the length of the control; Primary root length (Arabidopsis [2]; Arabidopsis vertical plate, 11 days after germination, control 1.8): 3.5 cm; Shoot biomass (Arabidopsis [2]; Arabidopsis vertical plate, 11 days after germination, control 11): 21 mg

— patent US20240206469A1, “PHOSPHORUS USE EFFICIENCY ENHANCERS AS PLANT GROWTH PROMOTORS” (EUROCHEM ANTWERPEN, priority 2021, published 2024)
